Assays:
Format in all cases: in vivo
[1] = system: rice seeds (variety of Kinmaze); assay: Root length of germinated rice seeds grown on gelled culture medium containing herbicidal compound A1 and a benzoic acid compound; settings: herbicidal compound A1 0.15 ppm, benzoic acid compound 2 ppm; after 7 days at 25° C.; percentage relative to untreated area
Description: Brine-sorted rice seeds (variety of Kinmaze) were soaked in a 0.5% aqueous solution of sodium hypochlorite for 10 minutes followed by washing in running water for 30 minutes and then kept at 30° C. for 36 hours to cause germination for obtaining germinated seeds. Separately, 0.3 part of gellan gum was dissolved in 100 parts of an aqueous solution of salts for Hoagland's No. 2 culture medium (a product by Sigma Co.). 13 Glass vials of 2 cm internal diameter and 5 cm height were each filled with 15 ml of the solution to which 2-[(4,6-dimethoxypyrimidin-2-yl)hydroxymethyl]-6-methoxymethyl-N-difluoromethane-sulfonylanilide (hereinafter referred to as the herbicidal compound A1) and a variety of the benzoic acid compounds indicated in Table 1 were added to make up concentrations of 0.15 ppm and 2 ppm, respectively, and kept standing to cause gelation of the solutions in the glass vial to prepare a culture medium containing the inventive composition (hereinafter referred to as the inventive culture medium). […]
Germinated seeds were grown in the same manner as in Example 1, except for not adding a benzoic acid compound to the inventive culture medium. After seven days, the lengths of the roots were measured.

[2] = system: Rice (Kinmaze); assay: Rice seedlings at second leaf stage grown in liquid culture medium with herbicidal compound A1 and benzoic acid compounds; settings: herbicidal compound A1 0.1 ppm, benzoic acid compound 3 or 1 ppm (Table 2); after 14 days
Description: The test culture media were prepared by adding, in advance, to a 25% aqueous solution of salts for Murashige & Skoog culture medium (a product of Wako Pure Chemical Industries, Ltd.), the herbicidal compound A1 and various benzoic acid compounds indicated in Table 2 to make up a concentration of 0.1 ppm and the concentrations shown in Table 2, respectively. Fifty ml each of the resulting test culture media were dispensed into a 50 ml Erlenmeyer flask to prepare various liquid culture media. Similarly, the same amount of the 25% aqueous solution of salts for Murashige & Skoog culture medium was added to the above-mentioned flask to prepare a liquid culture medium (hereinafter referred to as the untreated culture medium). Rice (Kinmaze) grown to the second leaf stage in culture soil for raising seedlings was soaked in these culture media, with the root cut off except for a 2 cm-long part thereof, and was grown in a growth chamber under the conditions of 25° C. with the lighting period of 16 hours, and the dark period of 8 hours to measure the plant length of rice, the length of the root and the living masses of the above-ground part and the root after 14 days or, namely, after lapse of 14 cycles.
Rice was grown in the same manner as in Example 14, except for not adding a benzoic acid compound. After 14 days, the plant length of rice, the length of the root, and the living masses of the above-ground part and the root were measured.

[3] = system: Rice (Kinmaze); assay: Rice seedlings at second leaf stage grown in liquid culture medium with various herbicidal compounds and p-(t-butyl)benzoic acid; settings: herbicidal compound at ppm of Table 3, with or without p-(t-butyl)benzoic acid 3 ppm; after 14 days
Description: The test media were prepared by adding, in advance, to a 25% aqueous solution of salts for Murashige & Skoog culture medium (a product by Wako Pure Chemical Industries, Ltd.), various herbicidal compounds indicated in Table 3 and p-(t-butyl)benzoic acid to make up concentrations indicated in Table 3 and a concentration of 3 ppm, respectively. Fifty ml each of the resulting test culture media were dispensed into a 50 ml Erlenmeyer flask to prepare various liquid culture media. Similarly, a liquid culture medium with a herbicidal compound and a benzoic acid compound not added was prepared. Rice (Kinmaze) grown to the second leaf stage in culture soil for raising seedlings was soaked in these culture media, with the root cut off except for a 2 cm-long part thereof, and was grown in a growth chamber (manufactured by SANYO Electric Co., Ltd.) under the conditions of 25° C. with the lighting period of 16 hours, and the dark period of 8 hours to measure the plant length of rice, the length of the root, and the living masses of the above-ground part and the root after 14 days.
Rice was grown in the same manner as in each of Examples 21 to 25, except for not adding a benzoic acid compound to the culture medium. After 14 days, the plant length of rice, the length of the root, and the living masses of the above-ground part and the root were measured.

SMILES	Living mass Above-ground part [3]	Living mass Root [3]	further results
COCc1cccc(C(O)c2nc(OC)cc(OC)n2)c1NS(=O)(=O)C(F)F (stereo not shown) [Comparative Example 1, 2-[(4,6-dimethoxypyrimidin-2-yl)hydroxymethyl]-6-methoxymethyl-N-difluoromethane-sulfonylanilide]	–	–	Length of root (%) [1]: 21%
COCc1cccc(C(O)c2nc(OC)cc(OC)n2)c1NS(=O)(=O)C(F)F (stereo not shown) [Comparative Example 2, 2-[(4,6-dimethoxypyrimidin-2-yl)hydroxymethyl]-6-methoxymethyl-N-difluoromethane-sulfonylanilide]	–	–	Length of root [2]: 2.1 cm; Living mass Above-ground part [2]: 0.16 g; Living mass Root [2]: 0.07 g; Plant length [2]: 15.6 cm
COC(=O)c1ccccc1CS(=O)(=O)NC(=O)Nc1nc(OC)cc(OC)n1 [compound 3, Bensulfuron-methyl]	0.11 g	0.05 g	–
CCOC(=O)c1cnn(C)c1S(=O)(=O)NC(=O)Nc1nc(OC)cc(OC)n1 [compound 4, Pyrazosulfuron-ethyl]	0.07 g	0.04 g	Length of root [3]: 2.0 cm; Plant length [3]: 11.7 cm
CCCCOCN(C(=O)CCl)c1c(CC)cccc1CC [compound 5, Butachlor]	0.14 g	0.09 g	–
CCN(CC)C(=O)SCc1ccc(Cl)cc1 [compound 6, Thiobencarb]	0.23 g	0.18 g	–
CCN(C(=O)n1nnn(-c2ccccc2Cl)c1=O)C1CCCCC1 [compound 7, Fentrazamide]	0.08 g	0.05 g	Length of root [3]: 2.2 cm; Plant length [3]: 11.6 cm

Reference: US8067337B2, “Agricultural chemical composition” (priority 2004, dated 2011)
